{"source": "patent US20070042976A1", "about": "“Method of treating cosmetic and dermatologic conditions by a demethylating agent” (priority 2005, published 2007)", "key": {"[1]": {"test_system": "normal human fibroblasts", "test": "Human fibroblasts collagen synthesis assay (14C-proline incorporation, collagenase-labile counts)", "format": "cell-based", "parameters": "reduction of the amount of collagen synthesized: dose or concentration left out as unconfirmed", "settings": "for Collagen (DPM/cell) with TGF β 1: with TGF β 1 (10 ng/ml), control 9945 +/− 602; for Collagen (DPM/cell) without TGF β 1: control 5267 +/− 1079", "protocol": "Human Fibroblasts Collagen Synthesis Assay\nHuman fibroblasts were grown in DMEM (10% FCS) in 24-wells plates to approximately 50% confluence. 5-azacytidine (from Sigma) was added for 5 hrs of 37° C. TGF-β1 was added (10 ng/ml) for 2 hours (hrs) at 37° C. Then, L-[U-14C]-proline solution (specific radioactivity 269 mCi/mmol) was added (1.25 μCi/well) and incubated for 20 hrs at 37° C. The cells were then washed with 5 mM proline in PBS and 5 mM proline in 70% methanol and incubated at […] for 20 hrs. […] After 20 hrs, the collagenase treated cultures were centrifuged and a new collagenase solution was added to the cells. The cultures were incubated with the enzyme for an additional 20 hrs. Proline incorporated into protein and released by collagenase treatment is defined as “collagen”. Incorporation of labeled proline into collagen was evaluated by scintillation counting of supernatants. In parallel, the cultures were checked for vitality using a 3-(4, 5-dimethylthiazol-2-yl)-2, 5-diphenyltetrazolium bromide (MTT) reaction. Each concentration of 5-azacytidine was analyzed (n=6), and the effect of 5-azacytidine on collagen synthesis were expressed as averaged DPM per number of viable cells +/− standard deviation.\nHuman fibroblasts were grown to about 50% confluence and exposed to medium with or without TGF β."}, "[2]": {"test_system": "Human squamous cell carcinoma line (SCL-1) cells", "test": "Cell death in human squamous cell carcinoma line with or without UVB (MTT)", "format": "cell-based", "settings": "for % Cell Death with UV: UV alone 22 +/− 0.1", "protocol": "Determination of Cell Death in Response to 5-azacytidine in Human Squamous Cell Carcinoma Line\nHuman squamous cell carcinoma line (SCL-1) cells were grown in DMEM medium with 10% FCS. 5-azacytidine was added at the indicated concentrations after the cells reached 100% confluence. The cultures were incubated for 24 hrs at 37° C. and then washed in Hepes buffer (pH=7.4) with isotonic salt and exposed to UVB radiation. Cell death was determined using MTT [3-(4, 5-dimethylthiazol-2-yl)-2, 5-diphenyltetrazolium bromide] kit obtained from Sigma. Each concentration of the drug was tested in six wells and the degree of inhibition (vs. controls of untreated cultures) was given as an average (% cell death +/−standard deviation).\nThe human squamous cells (SCL-1) were grown to about 50% confluence. The cultures were treated with minimal amount of 5-azacytidine, UV radiation, or the combination and cell viability was quantified. […] The exposure of the cells to UV, in the absence of the drug induced a cytotoxic effect in about 22% of the cells. Together, the combination of both UV and 5-azacytidine induced cell death at about 50% of the cancer cells."}, "[3]": {"test_system": "human fibroblasts", "test": "Proliferation of human fibroblasts in culture", "format": "cell-based", "settings": "previously found by applicant"}, "[4]": {"test_system": "collagen type IV gene", "settings": "transformed rat liver cells; cited from earlier work"}, "[5]": {"test_system": "alpha 2 collagen gene", "settings": "teratocarcinoma F9 cells; cited from earlier work"}, "[6]": {"test_system": "Pro collagen alpha I gene", "settings": "human rhabdomyosarcoma cells; cited from earlier work"}, "[7]": {"test_system": "alpha 2 collagen gene", "settings": "resistant cells such as HaCaT, Hela and HepG2; cited from earlier work"}, "[8]": {"test_system": "collagen gene expression", "settings": "human cancer cells, including fibrosarcomas and breast carcinoma; cited from earlier work"}, "[9]": {"test_system": "pieces of human skin", "test": "Incorporation of labeled proline into pieces of human skin (collagen biosynthesis, skin organ culture)", "settings": "for Collagen (DPM/mg tissue): control 333"}, "[10]": {"settings": "Azacytidine 4.8 ug/ml, listed as Azacytidine"}}, "note": "Marks after values point to notes of the source that are not given here."}
{"smiles": "Nc1ncn([C@@H]2O[C@H](CO)[C@@H](O)[C@H]2O)c(=O)n1", "note": "[5-azacytidine]", "values": [{"measurement": "Collagen (DPM/cell) with TGF β 1", "setting": "[1]; Azacytidine 1 μg/ml", "result": "8259 +/− 482 DPM/cell"}, {"measurement": "Collagen (DPM/cell) without TGF β 1", "setting": "[1]; Azacytidine 1 μg/ml", "result": "5306 +/− 717 DPM/cell"}, {"measurement": "Collagen (DPM/cell) with TGF β 1", "setting": "[1]; Azacytidine 5 μg/ml", "result": "6801 +/− 1359* DPM/cell"}, {"measurement": "Collagen (DPM/cell) without TGF β 1", "setting": "[1]; Azacytidine 5 μg/ml", "result": "4015 +/− 706* DPM/cell"}, {"measurement": "Collagen (DPM/cell) with TGF β 1", "setting": "[1]; Azacytidine 25 μg/ml", "result": "5183 +/− 816* DPM/cell"}, {"measurement": "Collagen (DPM/cell) without TGF β 1", "setting": "[1]; Azacytidine 25 μg/ml", "result": "2323 +/− 139* DPM/cell"}, {"measurement": "IC50", "setting": "[1]; Fibroblast, stated as similar to the IC50 in human skin, read-out: IC50 of collagen biosynthesis in cultured human fibroblasts", "result": "~25", "unit": "µg/mL"}, {"measurement": "effect on TGF β upregulation of collagen biosynthesis", "setting": "[1]; TGF β stimulated fibroblasts", "result": "inhibited in a dose dependent manner the ability of TGF β to upregulate collagen biosynthesis"}, {"measurement": "reduction of the amount of collagen synthesized", "setting": "[1]; concentration of about 25, basal (without TGF β)", "result": "approximately 55%"}, {"measurement": "effect on basal collagen produced", "setting": "[1]; without TGF β", "result": "inhibited the collagen produced in a dose dependent manner"}, {"measurement": "% Cell Death with UV", "setting": "[2]; Azacytidine 0.53 ug/ml", "result": "19 +/− 0.5%"}, {"measurement": "% Cell Death without UVB", "setting": "[2]; Azacytidine 0.53 ug/ml", "result": "2 +/− 0.7* %"}, {"measurement": "% Cell Death with UV", "setting": "[2]; Azacytidine 1.6 ug/ml", "result": "21 +/− 0.6%"}, {"measurement": "% Cell Death without UVB", "setting": "[2]; Azacytidine 1.6 ug/ml", "result": "5 +/− 0.3* %"}, {"measurement": "% Cell Death with UV", "setting": "[2]; Azacytidine 4.8 ug/ml", "result": "about 50%"}, {"measurement": "% Cell Death with UV", "setting": "[2]; [10]", "result": "50 +/− 0.2%"}, {"measurement": "% Cell Death without UVB", "setting": "[2]; Azacytidine 4.8 ug/ml", "result": "about 29%"}, {"measurement": "% Cell Death without UVB", "setting": "[2]; [10]", "result": "29 +/− 13* %"}, {"measurement": "IC50", "setting": "[2]; Homo sapiens, SCL-1, 5-Azacytidine alone (no UV)", "result": 11, "unit": "µg/mL"}, {"measurement": "combined effect of photo damage and drug on viability", "setting": "[2]; UV plus 5-azacytidine", "result": "additive effect"}, {"measurement": "effect on proliferation of fibroblasts in culture", "setting": "[3]", "result": "inhibits the proliferation"}, {"measurement": "effect on transcription of collagen type IV gene", "setting": "[4]", "result": "increases transcription of the collagen type IV gene"}, {"measurement": "effect on transcription of alpha 2 collagen gene", "setting": "[5]", "result": "induces transcription of alpha 2 collagen gene"}, {"measurement": "effect on transcription of Pro collagen alpha I gene", "setting": "[6]", "result": "transcriptional activation of the Pro collagen alpha I gene"}, {"measurement": "effect on alpha 2 collagen gene", "setting": "[7]", "result": "reactivated"}, {"measurement": "effect on collagen gene expression", "setting": "[8]", "result": "increased or reactivated collagen gene expression"}, {"measurement": "effect on collagen biosynthesis by human skin", "setting": "[9]", "result": "inhibited collagen biosynthesis in a dose dependent manner"}, {"measurement": "% Inhibition of collagen", "setting": "[9]; Azacytidine 6.25 ug/ml", "result": 40, "unit": "%"}, {"measurement": "Collagen (DPM/mg tissue)", "setting": "[9]; Azacytidine 6.25 ug/ml", "result": "199 +/− 34* DPM/mg tissue"}, {"measurement": "% Inhibition of collagen", "setting": "[9]; Azacytidine 25 ug/ml", "result": 48, "unit": "%"}, {"measurement": "Collagen (DPM/mg tissue)", "setting": "[9]; Azacytidine 25 ug/ml", "result": "174 +/− 53* DPM/mg tissue"}, {"measurement": "% Inhibition of collagen", "setting": "[9]; Azacytidine 100 ug/ml", "result": 72, "unit": "%"}, {"measurement": "Collagen (DPM/mg tissue)", "setting": "[9]; Azacytidine 100 ug/ml", "result": "92 +/− 13* DPM/mg tissue"}, {"measurement": "IC50", "setting": "[9]; Homo sapiens, read-out: IC50 of collagen biosynthesis in human skin", "result": "~25", "unit": "µg/mL"}]}
